From publication PMC8428568, “Discovery of re-purposed drugs that slow SARS-CoV-2 replication in human cells” (PLoS Pathogens, 2021)
Structures can show the parent of a compound that is named as a salt. Where two headings read alike, the source gives them in different places.

How the values were obtained:
[1] = system: SARS-CoV-2-ΔOrf7a-NLuc virus; test: microbe, parasite or virus in culture; assay type: cell-based; settings: for activity at 10 µM: Severe acute respiratory syndrome coronavirus 2, Vero, 72 h, read-out: Mean relative luminescence (n=4); for activity at 10 µM / Mean relative luminescence (n=4): 1 = untreated, 0 = total inhibition
[2] = system: recombinant NLuc; assay type: biochemical; settings: for Relative Recombinant NLUC: recombinant NLuc activity relative to DMSO; for Reads Counts per second (read 1) / Reads Counts per second (read 4) / Reads Counts per second (read 3) / Reads Counts per second (read 2): recombinant NLuc; for Reads Counts per second (read 1): first read column; for Reads Counts per second (read 4): fourth read column; for Reads Counts per second (read 3): third read column
[3] = system: Vero cells
[4] = Vero cells, 10 μM, 1 = DMSO-treated infected cells

| Compound | % activity in Vero 100PFU screen [1] [%] | activity at 10 µM [1] [%] | Relative Recombinant NLUC [2] | Reads Counts per second (read 1) [2] [Counts per second] | Reads Counts per second (read 4) [2] [Counts per second] | Reads Counts per second (read 3) [2] [Counts per second] | PrestoBlue relative viability [3, 4] | PrestoBlue relative viability ([3]; African green monkey) | Mean relative luminescence (n=4) [1] | Reads Counts per second (read 2) [2] [Counts per second] |
| --- | --- | --- | --- | --- | --- | --- | --- | --- | --- | --- |
| COc1cc2c(Oc3ccc4[nH]c(C)cc4c3F)ncnc2cc1OCCCN1CCCC1 [Cediranib (AZD217), Cediranib] | 3.31 | 2.67 | 0.9439 | 350524 | 362844 | 354116 | 0.559 | – | – | – |
| CCc1ccc(CCOc2ccc(CC3SC(=O)NC3=O)cc2)nc1 (stereo not shown) [Pioglitazone HCl] | – | 0.204 | – | – | – | – | – | 3.485 | – | – |
| C=CC(=O)Nc1cccc(Nc2nc(Nc3ccc(N4CCN(C(C)=O)CC4)cc3OC)ncc2C(F)(F)F)c1 [CO-1686 (AVL-301)] | 3 | – | 0.8551 | 327566 | 319872 | 324163 | 0.5096 | – | 0.02339 | – |
| C=C1/C(=C\C=C2/CCC[C@]3(C)[C@@H]([C@H](C)/C=C/[C@H](C)C(C)C)CC[C@@H]23)C[C@@H](O)C[C@@H]1O [Doxercalciferol] | 8 | 5.56 | 0.9613 | 361602 | 356613 | 370984 | 0.5418 | – | – | – |
| COc1ccc(-n2nc(C(N)=O)c3c2C(=O)N(c2ccc(N4CCCCC4=O)cc2)CC3)cc1 [Apixaban] | – | 0.124 | – | – | – | – | 2.564 | – | – | – |
| NCCC(O)(P(=O)([O-])O)P(=O)([O-])O.[Na+].[Na+] [Pamidronate Disodium] | 2.29 | – | 0.8313 | 309519 | 313941 | 313471 | 0.5456 | – | 0.01648 | – |
| CCN1C[C@H](C)n2c(c(O)c3c(=O)n(Cc4ccc(F)c(Cl)c4)nc(C(=O)NC)c32)C1=O [MK-2048] | – | – | – | – | – | – | 2.267 | – | 0.000491 | – |
| CCCCCCCCCCCCCCCC[N+](C)(C)CCN(Cc1ccc(OC)cc1)c1ncccn1 [Thonzonium Bromide] | – | 10.4 | – | – | – | – | 0.6049 | – | – | – |
| COc1cccc2c1C(=O)c1c(O)c3c(c(O)c1C2=O)C[C@@](O)(C(=O)CO)C[C@@H]3O[C@H]1C[C@H](N)[C@@H](O)[C@H](C)O1 [Epirubicin HCl] | 3.44 | 2.8 | 0.8025 | 298948 | 310338 | 302560 | – | 0.9127 | – | – |
| Clc1ccccc1C(c1ccccc1)(c1ccccc1)n1ccnc1 [Clotrimazole] | – | 13.9 | – | – | – | – | 1.057 | – | – | – |
| Oc1cc(Cl)ccc1Oc1ccc(Cl)cc1Cl [Triclosan] | – | 10.6 | – | – | – | – | 0.5234 | – | – | – |
| CCCCCCCCc1ccc(CCC(N)(CO)CO)cc1 [Fingolimod (FTY720), Fingolimod] | 3 | 0.757 | 0.9393 | 354171 | 351555 | 356587 | 0.6911 | – | – | – |
| C#C[C@]1(O)CC[C@H]2[C@@H]3CCC4=CCCC[C@@H]4[C@H]3C(=C)C[C@@]21CC [Desogestrel] | – | 14.5 | – | – | – | – | 0.6657 | – | – | – |
| N[C@@H](CC(=O)N1CCn2c(nnc2C(F)(F)F)C1)Cc1cc(F)c(F)cc1F [Sitagliptin phosphate monohydrate] | – | 0.0141 | – | – | – | – | 2.5607 | – | – | – |
| Clc1ccc(CCC(Cn2ccnc2)Sc2c(Cl)cccc2Cl)cc1 (stereo not shown) [Butoconazole nitrate] | – | 11.6 | – | – | – | – | 0.6922 | – | – | – |
| CC(C)(C)NC(=O)N[C@H](C(=O)N1C[C@H]2[C@@H]([C@H]1C(=O)NC(CC1CCC1)C(=O)C(N)=O)C2(C)C)C(C)(C)C (stereo partly shown) [Boceprevir] | 178 | – | 0.9177 | 341877 | 349417 | 346623 | – | – | – | 348889 |
| NC(=O)CC[C@H](N)C(=O)O [L-Glutamine] | 204 | – | 0.9419 | 349150 | 350740 | 361792 | – | – | – | – |
| CC(C)C(=O)OCC(=O)[C@@]12O[C@H](C3CCCCC3)O[C@@H]1C[C@H]1[C@@H]3CCC4=CC(=O)C=C[C@]4(C)[C@H]3[C@@H](O)C[C@@]12C [Ciclesonide] | – | 14.1 | – | – | – | – | 0.5125 | – | – | – |
| Nc1cccc2c1CN(C1CCC(=O)NC1=O)C2=O (stereo not shown) [Lenalidomide (CC-5013), Lenalidomide] | – | 0.218 | – | – | – | – | 2.058 | – | – | – |
| Cn1c(=O)cc(N2CCC[C@@H](N)C2)n(Cc2ccccc2C#N)c1=O [Alogliptin Benzoate] | 166 | – | 0.863 | 316906 | 323679 | 331161 | – | – | – | 332493 |
| CNCCC(Oc1ccc(C(F)(F)F)cc1)c1ccccc1.Cl (stereo not shown) [Fluoxetine HCl] | 2.12 | – | – | 317425 | 307707 | 314163 | – | – | – | – |
| CN(CCOc1ccc(CC2SC(=O)NC2=O)cc1)c1ccccn1 (stereo not shown) [Rosiglitazone] | – | 0.183 | – | – | – | – | 3.111 | – | – | – |
| Bivalirudin Trifluoroacetate | 172 | – | 0.8139 | 309590 | 301908 | 307409 | – | – | – | 311058 |
| NC(=O)c1ccc[n+]([C@@H]2O[C@H](COP(=O)([O-])OP(=O)(O)OC[C@H]3O[C@@H](n4cnc5c(N)ncnc54)[C@H](O)[C@@H]3O)[C@@H](O)[C@H]2O)c1 [NAD+] | 164 | – | 1.016 | 385544 | 376264 | 386401 | – | – | – | – |
| C=CCNC1=C2C[C@@H](C)C[C@H](OC)[C@H](O)[C@@H](C)/C=C(\C)[C@H](OC(N)=O)[C@@H](OC)/C=C\C=C(/C)C(=O)NC(=CC1=O)C2=O [17-AAG (KOS953), 17-AAG] | 209 | – | 0.9121 | 339450 | 348179 | 343744 | – | – | – | 347084 |
| OB1OCc2cc(F)ccc21 [AN-2690] | 171 | – | 0.8709 | 329173 | 324160 | 332892 | – | – | – | 329953 |
| Cc1cc(Nc2cc(CN3CCOCC3)c3nc(C)c(Cc4ccc(Cl)cc4F)n3n2)n[nH]1 [LY2784544] | – | 0.145 | – | – | – | – | 0.7859 | – | – | – |
